Values joined by “and” are separate entries in the source; they are usually repeats but may differ in a detail not shown here. Equal entries are not always repeated.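 Assay format: 96-well plates, 48-hour exposure. Abbreviation: GI50, concentration required for 50% inhibition of growth.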 Active and inactive are the calls of the source. Rule as the data show it: active = GI50 up to about 1.1 µM and inactive = higher.
How the values were obtained:
Assay in all cases: DTP human tumour cell line panel, 48 h
DMS-273 = tested on: DMS-273
DLD-1 = tested on: DLD-1
HOP-18 = tested on: HOP-18
KM-20L2 = tested on: KM-20L2
SNB-78 = tested on: SNB-78
DMS-114 = tested on: DMS-114
Hs-578T = tested on: Hs-578T
XF498 = tested on: XF498
RXF 631 = tested on: RXF 631

Question: Which GI50 (DMS-273) does the source give for O=C1C(=Cc2c(O)cc(O)cc2O)C(=O)c2ccccc21 here?
Answer: > 100 µM (inactive)

Question: What about the GI50 (DLD-1) of the same compound?
Answer: > 40.6 µM (inactive)

Question: And the GI50 (HOP-18)?
Answer: 27.4 µM (inactive)

Question: What about the GI50 (KM-20L2) of the same compound?
Answer: > 43.5 µM (inactive)

Question: And the GI50 (SNB-78)?
Answer: 23.8 µM (inactive)

Question: What about the GI50 (DMS-114) of the same compound?
Answer: > 100 µM (inactive)

Question: How did the GI50 (Hs-578T) turn out when CS(=O)(=O)Nc1ccc(NCc2c[nH]c3ccc4ncccc4c23)cc1 was run?
Answer: 22.3 µM (inactive)

Question: How did the GI50 (Hs-578T) turn out when CCOc1ccc(-n2c(=O)n3c(Nc4ccc(Cl)cc4)nc4c(c(=O)n(C)c(=O)n4C)n3c2=O)cc1 was run?
Answer: 33 µM (inactive)

Question: For N#C/C(=C1\OC(=N)C(c2ccccc2)C1=O)c1ccccc1 (centres undefined), which GI50 (DMS-273) is on record?
Answer: 49.9 µM (inactive)

Question: What about the GI50 (XF498) of the same compound?
Answer: 16.9 µM (inactive)

Question: What about the GI50 (DLD-1) of the same compound?
Answer: 18.3 µM (inactive)

Question: What about the GI50 (HOP-18) of the same compound?
Answer: 28.6 µM (inactive)

Question: What about the GI50 (KM-20L2) of the same compound?
Answer: 98.6 µM (inactive)

Question: What about the GI50 (SNB-78) of the same compound?
Answer: > 77.1 µM (inactive)

Question: And the GI50 (DMS-114)?
Answer: 29.5 µM (inactive)

Question: For COc1cc(O)c2c(c1)OCC1(Cc3cc(OC)c(OC)cc31)C2=O (centres undefined), which GI50 (Hs-578T) is on record?
Answer: 42.5 µM (inactive)

Question: How did the GI50 (DMS-273) turn out when Cc1ccc(S(=O)(=O)OCC/C(=C\[Si](C)(C)C)c2ccccc2)cc1 was run?
Answer: > 100 µM (inactive)

Question: And the GI50 (XF498)?
Answer: > 100 µM (inactive)

Question: And the GI50 (DLD-1)?
Answer: > 100 µM (inactive)

Question: What about the GI50 (HOP-18) of the same compound?
Answer: > 100 µM (inactive)

Question: What about the GI50 (KM-20L2) of the same compound?
Answer: > 100 µM (inactive)

Question: And the GI50 (DMS-114)?
Answer: > 100 µM (inactive)

Question: How did the GI50 (RXF 631) turn out when O=C(NC1CC1)c1c(O)[nH]c(=S)[nH]c1=O was run?
Answer: > 100 µM (inactive)

Question: And the GI50 (DLD-1)?
Answer: > 100 µM (inactive)

Question: And the GI50 (HOP-18)?
Answer: > 100 µM (inactive)

Question: And the GI50 (KM-20L2)?
Answer: > 100 µM (inactive)

Question: And the GI50 (SNB-78)?
Answer: > 100 µM (inactive)

Question: What about the GI50 (DMS-114) of the same compound?
Answer: > 100 µM (inactive)

Question: With CC1=CC2C3(C)C(C)(C(C)=CP3(=O)c3c(C(C)C)cc(C(C)C)cc3C(C)C)C1P2(=O)c1c(C(C)C)cc(C(C)C)cc1C(C)C (centres undefined) as the compound, how does the GI50 (Hs-578T) read?
Answer: 2.28 µM (inactive)

Question: How did the GI50 (Hs-578T) turn out when CN(CCCCCl)P(=O)(OCc1ccc([N+](=O)[O-])o1)OCC1OC(n2ccc(N)nc2=O)C(O)C1O (centres undefined) was run?
Answer: 1.26 µM (inactive)

Question: Which GI50 (Hs-578T) does the source give for COC1/C=C/C(C)C(OC)CC(O)/C=C/C(C)C(C(C)C(OC)C(C)CCC(=O)C(C)C(C/C=C/N(C)C=O)OC)OC(=O)/C=C/C=C(\C)CC(OC)CC2=CC(=O)O[C@@H](C(C)C(OC)C1)[C@H]2O (some centres undefined) here?
Answer: 0.0809 µM (active)

Question: Which results are given for COc1ncn(C2C=C(CO)C(O)C2O)c(=O)n1 (centres undefined)?
Answer: GI50 (DMS-273): > 100 µM (inactive); GI50 (DLD-1): > 100 µM (inactive); GI50 (HOP-18): > 100 µM (inactive); GI50 (KM-20L2): > 100 µM (inactive); GI50 (SNB-78): > 100 µM (inactive); GI50 (DMS-114): > 100 µM (inactive)

Question: For O=C(O)C12C3CCC(O3)C1(C(=O)O)C1CCC2O1 (centres undefined), which GI50 (Hs-578T) is on record?
Answer: > 100 µM (inactive) and 98.2 µM (inactive)

Question: How did the GI50 (Hs-578T) turn out when COCOC1C=CCCCC2=CC(C)=C(CC1)O2 (centres undefined) was run?
Answer: > 100 µM (inactive)

Question: Which GI50 (Hs-578T) does the source give for COC(=O)/C=C\C(C#N)(C#N)/N=C/c1ccc(OC)cc1 here?
Answer: 10 µM (inactive)

Question: For O=C(O)C1C(C(=O)O)C23CC2(C(=O)O)C2(C(=O)O)CCC3=C3CCCC312 (centres undefined), which GI50 (Hs-578T) is on record?
Answer: 2.67 µM (inactive)

Question: How did the GI50 (RXF 631) turn out when COc1ccc(-c2cc(=O)c3cc(C)c(C)c(C(=O)O)c3o2)cc1 was run?
Answer: > 100 µM (inactive)

Question: And the GI50 (DMS-273)?
Answer: > 100 µM (inactive)

Question: And the GI50 (XF498)?
Answer: > 100 µM (inactive)

Question: And the GI50 (DLD-1)?
Answer: > 100 µM (inactive)

Question: And the GI50 (KM-20L2)?
Answer: > 100 µM (inactive)

Question: And the GI50 (SNB-78)?
Answer: > 100 µM (inactive)

Question: What about the GI50 (DMS-114) of the same compound?
Answer: 15.3 µM (inactive)

Question: How did the GI50 (Hs-578T) turn out when COC(=O)c1c(O)ccc2c1c1c(n2CCc2ccc(OC)c(OC)c2)C(=O)c2ccccc2C1=O was run?
Answer: 10.9 µM (inactive)

Question: Which results are given for O=C(N/N=C/c1cccc(F)c1)c1ccncc1?
Answer: GI50 (DMS-273): > 100 µM (inactive); GI50 (XF498): > 100 µM (inactive); GI50 (DLD-1): > 100 µM (inactive); GI50 (HOP-18): > 100 µM (inactive); GI50 (KM-20L2): > 100 µM (inactive); GI50 (DMS-114): > 100 µM (inactive)

Question: For COc1cc(/C=C/C(=O)N[C@@H]2C(=O)N3[C@@H]2SC(C)(C)[C@@H]3C(=O)O)ccc1O, which GI50 (Hs-578T) is on record?
Answer: > 100 µM (inactive)

Question: What does the source list for O=C1C=CC(=O)c2ccc(=O)ccc21?
Answer: GI50 (RXF 631): 14.4 µM (inactive); GI50 (DMS-273): 25.5 µM (inactive); GI50 (DLD-1): 4.34 µM (inactive); GI50 (HOP-18): 19.4 µM (inactive); GI50 (KM-20L2): 22.2 µM (inactive); GI50 (SNB-78): 25.9 µM (inactive); GI50 (DMS-114): 9.16 µM (inactive); GI50 (Hs-578T): 36.6 µM (inactive)

Question: How did the GI50 (Hs-578T) turn out when COc1cccc2cc(C(C)=O)c(=O)oc12 was run?
Answer: > 100 µM (inactive)

Question: For COc1ccc(NC(=O)CSc2nc(C)nc3c2sc(=S)n3-c2ccccc2)cc1, which GI50 (Hs-578T) is on record?
Answer: 3.75 µM (inactive)

Question: C=C1C(=O)C23CC1CCC2C12CO[C@H](O)[C@H]1C(C)(C)[C@H](OC(C)=O)C[C@H]2OC3=O (some centres undefined) was tested. Which GI50 (Hs-578T) did it give?
Answer: 34.4 µM (inactive)

Question: With COc1cc(CCCOC(=O)/C=C/c2ccc(O)c(O)c2)cc(O)c1O as the compound, how does the GI50 (Hs-578T) read?
Answer: 35.6 µM (inactive)

Question: With C[C@H]1CCC2C(OC(=O)[C@@H]2CN(C)C)[C@]2(C)C(=O)C=CC12O (some centres undefined) as the compound, how does the GI50 (RXF 631) read?
Answer: 1.31 µM (inactive)

Question: What about the GI50 (DMS-273) of the same compound?
Answer: 3.12 µM (inactive)

Question: What about the GI50 (DLD-1) of the same compound?
Answer: 2.99 µM (inactive)

Question: And the GI50 (HOP-18)?
Answer: 24.2 µM (inactive)

Question: What about the GI50 (KM-20L2) of the same compound?
Answer: 2.17 µM (inactive)

Question: And the GI50 (DMS-114)?
Answer: 2.93 µM (inactive)

Question: What about the GI50 (Hs-578T) of the same compound?
Answer: 4.27 µM (inactive)

Question: With O=c1cc(-c2ccccc2)oc2cc(Oc3nnnn3-c3ccccc3)ccc12 as the compound, how does the GI50 (Hs-578T) read?
Answer: 25.4 µM (inactive)

Question: COc1ccccc1NC(=O)C1=C(C)NC(C)=C(C(=O)Nc2ccccc2OC)C1C1=CC=COC1 was tested. Which GI50 (DMS-273) did it give?
Answer: 6.81 µM (inactive)

Question: What about the GI50 (DLD-1) of the same compound?
Answer: 11.5 µM (inactive)

Question: And the GI50 (HOP-18)?
Answer: 28.5 µM (inactive)

Question: What about the GI50 (KM-20L2) of the same compound?
Answer: 6.07 µM (inactive)

Question: And the GI50 (SNB-78)?
Answer: 23.3 µM (inactive)

Question: And the GI50 (DMS-114)?
Answer: 7.24 µM (inactive)

Question: With [O-][n+]1nc(N2CCOCC2)nc2ccccc21 as the compound, how does the GI50 (Hs-578T) read?
Answer: > 100 µM (inactive)

Question: How did the GI50 (Hs-578T) turn out when O=c1[nH]nc(Nc2ccc(Cl)cc2)c2nnn(C3CCCCC3)c12 was run?
Answer: 34.5 µM (inactive)

Question: With OCCN1CN(c2nc(N3CN(CCO)C3)nc(N3CN(CCO)C3)n2)C1 as the compound, how does the GI50 (Hs-578T) read?
Answer: 35.2 µM (inactive)

Question: Which GI50 (Hs-578T) does the source give for COC(=O)C1=COC(C)C2C[n+]3ccc4c([nH]c5ccccc54)c3CC12 (centres undefined) here?
Answer: > 100 µM (inactive)

Question: Which GI50 (Hs-578T) does the source give for CC1(C)CO[P@@](=S)(c2ccccn2)O[C@@H]1c1ccccc1 here?
Answer: > 100 µM (inactive)

Question: CCOC(=O)/C(C(N)=O)=C(/O)c1cnccn1 was tested. Which GI50 (Hs-578T) did it give?
Answer: > 100 µM (inactive)

Question: How did the GI50 (Hs-578T) turn out when O=C1NC2c3c(I)sc(I)c3C(=O)C2O1 (centres undefined) was run?
Answer: 13.5 µM (inactive)
